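Exposure lasted 48 hours, with cells grown in 96-well plates and compounds tested at five concentrations. GI50 is the concentration that inhibits growth by half. The concentration for full growth arrest is given as TGI.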
Experiments:
Assay in all cases: inhibition of tumour cell growth, NCI panel, 48 h
[1] = system: SN12C renal
[2] = system: MCF7 breast
[3] = system: MALME-3M melanoma
[4] = system: SK-OV-3 ovarian
[5] = system: MDA-MB-231 breast
[6] = system: SF-268 CNS
[7] = system: CCRF-CEM leukemia
[8] = system: CAKI-1 renal
[9] = system: OVCAR-3 ovarian
[10] = system: 786-0 renal
[11] = system: RPMI-8226 leukemia
[12] = system: NCI-H460 lung
[13] = system: U251 CNS
[14] = system: IGROV1 ovarian
[15] = system: LOX IMVI melanoma
[16] = system: HOP-62 NSCLC
[17] = system: UACC-62 melanoma
[18] = system: A498 renal
[19] = system: HOP-92 NSCLC
[20] = system: UO-31 renal
[21] = system: MDA-MB-435
[22] = system: NCI/ADR-RES ovarian
[23] = system: SK-MEL-28 melanoma
[24] = system: SK-MEL-5 melanoma
[25] = system: TK-10 renal
[26] = system: T-47D breast
[27] = system: SW-620 colon
[28] = system: M14 melanoma
[29] = system: K-562 leukemia
[30] = system: NCI-H226 lung
[31] = system: SF-295 CNS
[32] = system: HCT-116 colon
[33] = system: BT-549 breast
[34] = system: NCI-H23 lung
[35] = system: A549 NSCLC
[36] = system: COLO 205 colon
[37] = system: UACC-257 melanoma
[38] = system: HCC-2998 colon
[39] = system: SK-MEL-2 melanoma
[40] = system: HT29 colon
[41] = system: SNB-19 CNS
[42] = system: EKVX NSCLC
[43] = system: OVCAR-5 ovarian
[44] = system: HS 578T breast
[45] = system: PC-3 prostate
[46] = system: SF-539 CNS
[47] = system: HCT-15 colon
[48] = system: OVCAR-8 ovarian
[49] = system: HL-60(TB) leukemia
[50] = system: MOLT-4 leukemia
[51] = system: SNB-75 CNS
[52] = system: NCI-H522 lung
[53] = system: OVCAR-4 ovarian
[54] = system: ACHN renal
[55] = system: DU-145 prostate
[56] = system: KM12 colon
[57] = system: RXF 393 renal

COC(=O)c1oc2c(C(C)=O)c(OCCN3CCOCC3)c(OC)cc2c1C showed a GI50 [1] of over 100 µM, a TGI [1] of over 100 µM and a GI50 [2] of over 100 µM. It also gave a TGI [2] of over 100 µM, a GI50 [3] of over 100 µM and a TGI [3] of over 100 µM. For the same molecule, the GI50 [4] was over 100 µM, the TGI [4] was over 100 µM and the GI50 [5] was over 100 µM. For the same molecule, the TGI [5] was over 100 µM, the GI50 [6] was over 100 µM and the TGI [6] was over 100 µM. It also gave a GI50 [7] of over 100 µM, a TGI [7] of over 100 µM and a GI50 [8] of over 100 µM. For the same molecule, the TGI [8] was over 100 µM, the GI50 [9] was over 100 µM and the TGI [9] was over 100 µM. It also gave a GI50 [10] of over 100 µM, a TGI [10] of over 100 µM and a GI50 [11] of over 100 µM. For the same molecule, the TGI [11] was over 100 µM, the GI50 [12] was over 100 µM and the TGI [12] was over 100 µM. The GI50 [13] was over 100 µM, the TGI [13] was over 100 µM and the GI50 [14] was over 100 µM. It also gave a TGI [14] of over 100 µM, a GI50 [15] of over 100 µM and a TGI [15] of over 100 µM. The GI50 [16] was over 100 µM, the TGI [16] was over 100 µM and the GI50 [17] was over 100 µM. For the same molecule, the TGI [17] was over 100 µM, the GI50 [18] was over 100 µM and the TGI [18] was over 100 µM. It also gave a GI50 [19] of over 100 µM, a TGI [19] of over 100 µM and a GI50 [20] of over 100 µM. For the same molecule, the TGI [20] was over 100 µM, the GI50 [21] was over 100 µM and the TGI [21] was over 100 µM. The GI50 [22] was over 100 µM, the TGI [22] was over 100 µM and the GI50 [23] was over 100 µM. It also gave a TGI [23] of over 100 µM, a GI50 [24] of over 100 µM and a TGI [24] of over 100 µM. For the same molecule, the GI50 [25] was over 100 µM, the TGI [25] was over 100 µM and the GI50 [26] was over 100 µM. The TGI [26] was over 100 µM, the GI50 [27] was over 100 µM and the TGI [27] was over 100 µM. The GI50 [28] was over 100 µM, the TGI [28] was over 100 µM and the GI50 [29] was over 100 µM. It also gave a TGI [29] of over 100 µM, a GI50 [30] of over 100 µM and a TGI [30] of over 100 µM. The GI50 [31] was over 100 µM, the TGI [31] was over 100 µM and the GI50 [32] was over 100 µM. The TGI [32] was over 100 µM, the GI50 [33] was over 100 µM and the TGI [33] was over 100 µM. The GI50 [34] was over 100 µM, the TGI [34] was over 100 µM and the GI50 [35] was over 100 µM. For the same molecule, the TGI [35] was over 100 µM, the GI50 [36] was over 100 µM and the TGI [36] was over 100 µM. For the same molecule, the GI50 [37] was over 100 µM, the TGI [37] was over 100 µM and the GI50 [38] was over 100 µM. The TGI [38] was over 100 µM, the GI50 [39] was over 100 µM and the TGI [39] was over 100 µM. For the same molecule, the GI50 [40] was over 100 µM, the TGI [40] was over 100 µM and the GI50 [41] was over 100 µM. It also gave a TGI [41] of over 100 µM, a GI50 [42] of over 100 µM and a TGI [42] of over 100 µM. It also gave a GI50 [43] of over 100 µM, a TGI [43] of over 100 µM and a GI50 [44] of over 100 µM. The TGI [44] was over 100 µM, the GI50 [45] was over 100 µM and the TGI [45] was over 100 µM. For the same molecule, the GI50 [46] was over 100 µM, the TGI [46] was over 100 µM and the GI50 [47] was over 100 µM. It also gave a TGI [47] of over 100 µM, a GI50 [48] of over 100 µM and a TGI [48] of over 100 µM. For the same molecule, the GI50 [49] was over 100 µM, the TGI [49] was over 100 µM and the GI50 [50] was over 100 µM. It also gave a TGI [50] of over 100 µM, a GI50 [51] of over 100 µM and a TGI [51] of over 100 µM. For the same molecule, the GI50 [52] was over 100 µM, the TGI [52] was over 100 µM and the GI50 [53] was over 100 µM. It also gave a TGI [53] of over 100 µM, a GI50 [54] of over 100 µM and a TGI [54] of over 100 µM.

With Cc1ccc(Cl)cc1Nc1nc(C(F)(F)F)ccc1C(N)=O the GI50 [1] was 5.5 µM, the TGI [1] was 91.8 µM and the GI50 [2] was 3.92 µM. The TGI [2] was over 100 µM, the GI50 [4] was 16.9 µM and the TGI [4] was over 100 µM. For the same molecule, the GI50 [5] was 2.47 µM, the TGI [5] was 11.8 µM and the GI50 [6] was 6.46 µM. It also gave a TGI [6] of over 100 µM, a GI50 [7] of 15.1 µM and a TGI [7] of 36.2 µM. For the same molecule, the GI50 [8] was 3.5 µM, the TGI [8] was 23.9 µM and the GI50 [9] was 13.2 µM. For the same molecule, the TGI [9] was 55.7 µM, the GI50 [10] was 3.28 µM and the TGI [10] was 13.6 µM. For the same molecule, the GI50 [11] was 18.6 µM, the TGI [11] was 46.8 µM and the GI50 [12] was 3.28 µM. For the same molecule, the TGI [12] was over 100 µM, the GI50 [13] was 4.09 µM and the TGI [13] was 26.1 µM. For the same molecule, the GI50 [14] was 5.19 µM, the TGI [14] was 59.2 µM and the GI50 [55] was 9.77 µM. The TGI [55] was over 100 µM, the GI50 [15] was 2.23 µM and the TGI [15] was 11.4 µM. For the same molecule, the GI50 [16] was 3.5 µM, the TGI [16] was 17.4 µM and the GI50 [17] was 6.56 µM. It also gave a TGI [17] of 26.6 µM, a GI50 [56] of 5.09 µM and a TGI [56] of 47.8 µM. The GI50 [19] was 15.1 µM, the TGI [19] was 40.7 µM and the GI50 [20] was 5.37 µM. For the same molecule, the TGI [20] was over 100 µM, the GI50 [21] was 12 µM and the TGI [21] was 60.4 µM. For the same molecule, the GI50 [22] was 5.7 µM, the TGI [22] was 31.2 µM and the GI50 [23] was 43.8 µM. The TGI [23] was over 100 µM, the GI50 [24] was 1.92 µM and the TGI [24] was 6.6 µM. It also gave a GI50 [25] of 4.31 µM, a TGI [25] of 18.5 µM and a GI50 [26] of 3.54 µM. For the same molecule, the TGI [26] was over 100 µM, the GI50 [27] was 6.98 µM and the TGI [27] was over 100 µM. It also gave a GI50 [28] of 10.7 µM, a TGI [28] of 35.7 µM and a GI50 [57] of 10.5 µM. It also gave a TGI [57] of 34 µM, a GI50 [29] of 21.3 µM and a TGI [29] of 46.1 µM. It also gave a GI50 [30] of 1.45 µM, a TGI [30] of 9.81 µM and a GI50 [31] of 11.9 µM. For the same molecule, the TGI [31] was 41.2 µM, the GI50 [32] was 5.91 µM and the TGI [32] was 22.8 µM. The GI50 [33] was 4.53 µM, the TGI [33] was 28.6 µM and the GI50 [34] was 2.76 µM. The TGI [34] was 15.9 µM, the GI50 [35] was 12.8 µM and the TGI [35] was over 100 µM. The GI50 [36] was 5.48 µM, the TGI [36] was 71.2 µM and the GI50 [37] was 24.8 µM. It also gave a TGI [37] of 83.5 µM, a GI50 [38] of 6.1 µM and a TGI [38] of 20.3 µM. It also gave a GI50 [39] of 20.4 µM, a TGI [39] of over 100 µM and a GI50 [40] of 4.02 µM. For the same molecule, the TGI [40] was over 100 µM, the GI50 [41] was 11.3 µM and the TGI [41] was over 100 µM. For the same molecule, the GI50 [42] was 4.16 µM, the TGI [42] was 46.8 µM and the GI50 [43] was 8.48 µM. It also gave a TGI [43] of 49.4 µM, a GI50 [44] of 0.809 µM and a TGI [44] of 3.94 µM. For the same molecule, the GI50 [45] was 14 µM, the TGI [45] was 71.1 µM and the GI50 [46] was 4.46 µM. The TGI [46] was 28 µM, the GI50 [47] was 5.73 µM and the TGI [47] was over 100 µM. The GI50 [48] was 29.4 µM, the TGI [48] was over 100 µM and the GI50 [50] was 7.54 µM. For the same molecule, the TGI [50] was 48.4 µM, the GI50 [51] was 8.65 µM and the TGI [51] was over 100 µM. It also gave a GI50 [52] of 4.63 µM, a TGI [52] of 60.7 µM and a GI50 [53] of 22.3 µM. The TGI [53] was over 100 µM, the GI50 [54] was 3.67 µM and the TGI [54] was 15.3 µM.
